The text below walks through data of patent publication US7943186B2, “Hydroxycitric acid compositions, pharmaceutical and dietary supplements and food products made therefrom, and methods for their use in reducing body weight” (Interhealth Nutraceuticals, Inc., priority 1997, dated 2011).

One series is described as follows: Solubility in water. Type of series: physicochemical.
The nature of a further series: Hygroscopicity. In kind it is physicochemical.
The next series deals with fatty acid synthesis. As to conditions: biological systems, profused organs and intact mammals; cited from earlier work.
The subject of another series is rats. To be noted: cited from earlier work.

Turning to `O=C([O-])C[C@@](O)(C(=O)[O-])[C@H](O)C(=O)[O-].O=C([O-])C[C@@](O)(C(=O)[O-])[C@H](O)C(=O)[O-].[Ca+2].[Ca+2].[Ca+2]` [pure calcium salt], the “solubility in water (in words)” value in the series “Solubility in water” is “moderately soluble”. Also, the hygroscopicity entry in the series “Hygroscopicity” is “minimal hygroscopicity”.

Turning to `O=C([O-])C[C@@](O)(C(=O)[O-])[C@H](O)C(=O)[O-].[K+].[K+].[K+]` [pure potassium salt], in “Solubility in water”, the “solubility in water (in words)” value was “highly soluble”. Also, the hygroscopicity entry in the series “Hygroscopicity” is listed as “high hygroscopicity”.

As to `O=C(O)CC(O)(C(=O)O)C(O)C(=O)O` (stereo not shown) [hydroxycitric acid], the “inhibition of fatty acid synthesis” value with fatty acid synthesis was “substantially inhibit fatty acid synthesis”. Besides, in the series on rats, the body weight result was “significantly reduce the body weight” and the lipid accumulation result is reported as “lower lipid accumulation”.
